Assay: Rotating Cage Autoclave Test (RCA), sour
Conditions: 150 ppm, 200 ppm H2S, 15% CO2, balance N2, 65° C., 70 bar, 72 hours, 1700 rpm
Method: In order to evaluate the corrosion inhibition efficacy of the polyesters according to the invention, 4 different test methods were employed: Linear Polarizing Resistance (LPR), Rotating Cylinder Electrode Test (RCE), Shell wheel test and High Pressure/High Temperature Rotating Cage Autoclave Test (RCA). For all testing 3.5% NaCl brine was used. For the application tests the materials to be tested (inventive as well as comparative) were diluted with butyl glycol to an active content of 25 wt.-% prior to testing. The dosage rates given in the tables refer to these 25 wt.-% active formulations.
Autoclaves equipped with rotating cages (RCA) were used to simulate high shear conditions for the purpose of evaluating system corrosivity and inhibitor performance. The testing solution consisted of 720 mL 3.5% NaCl brine and 80 mL LVT-200 oil. The synthetic brine had three cycles of vacuum/CO2 charge to the vessel prior to initiating the test to remove dissolved oxygen and to achieve an anaerobic system. Two weight loss corrosion coupons fixed on the rotating cage were used in each autoclave. General corrosion rates were calculated by weight loss measurement. A blank was run for comparison. Test conditions have been summarized below in Table 5.

Substance: N-tallow alkyl hexahydropyrimidinium ethoxylate methosulfate [sample 6]
- Average corrosion rate [mpy]: 8.99 mpy
- Percent protection: 92.8%

From patent US11845892B2, “Use of complex polyesteramines and polyester polyquaternary ammonium compounds as corrosion inhibitors” (Clariant International, Ltd., priority 2021, dated 2023)
